Among the data in ChEMBL document CHEMBL2375219, “Discovery of new potential hits of Plasmodium falciparum enoyl-ACP reductase through ligand- and structure-based drug design approaches” (Bioorg Med Chem Lett, 2013) are pIC50 values, retold here.

The nature of the experiment: Inhibition of Plasmodium falciparum enoyl-ACP reductase expressed in Escherichia coli BL21(DE3) assessed as inhibition of crotonyl-CoA reduction to butyryl-CoA by UV-Vis spectrophotometric analysis.

For orientation: pIC50 means the negative decadic logarithm of the IC50, by convention in mol/L.

For `O=C1/C(=C/c2cccc(O)c2)SC(=S)N1c1ccccc1`, the pIC50 turned out to be 5.066.
Take `O=C1/C(=C/c2ccc(Cl)c([N+](=O)[O-])c2)SC(=S)N1c1cccc(Cl)c1`: the pIC50 is 4.73.
Consider `O=C(O)c1ccc(/C=C2\SC(=S)N(c3ccc(O)cc3)C2=O)cc1`, for which the pIC50 is 5.056.
The result for `O=C(O)c1ccc(/C=C2\SC(=S)N(c3ccccc3)C2=O)cc1` reads 5.041; that for `COc1cccc(N2C(=O)/C(=C/c3ccc(C(=O)O)cc3)SC2=S)c1`, 5.009.
The result for `COc1cc(/C=C2\SC(=S)N(c3ccc([N+](=O)[O-])cc3)C2=O)cc(Cl)c1O` reads 5.004; that for `O=C1/C(=C/c2cc(O)c(O)c(Br)c2)SC(=S)N1c1cccc(C(F)(F)F)c1`, 5.004.
The result for `O=C(O)c1ccccc1/C=C1\SC(=S)N(c2cccc(Cl)c2)C1=O` reads 4.921; that for `O=C(O)c1ccccc1/C=C1\SC(=S)N(c2ccc(F)cc2)C1=O`, 4.573.
Turning to `Cc1ccc(N2C(=O)/C(=C/c3ccc(O)c(O)c3)SC2=S)c(C)c1`, the pIC50 was 6.301.
For `O=C1/C(=C/c2ccc(O)c(O)c2)SC(=S)N1c1ccc(Cl)cc1` the value was 5.102; for `COc1ccc(N2C(=O)/C(=C/c3ccc(OC)c(O)c3)SC2=S)cc1`, 5.004; for `COc1cccc(N2C(=O)/C(=C/c3cccc(O)c3)SC2=S)c1`, 5.041.
For `COC(=O)c1ccc(N2C(=O)/C(=C/c3cccc(OC)c3)SC2=S)cc1` the value was 4.565.
For `COc1cccc(N2C(=O)/C(=C/c3ccc(O)cc3)SC2=S)c1` the value was 4.91.
As to `O=C(O)c1ccc(/C=C2\SC(=S)N(c3ccccc3F)C2=O)cc1`, the negative logarithm of the IC50 (pIC50) came out at 4.79.
As to `Cc1ccc(N2C(=O)/C(=C/c3ccc(O)c(O)c3)SC2=S)cc1C`, the negative-log IC50 (pIC50) is 6.602.
For `O=C1/C(=C/c2ccc(O)c(O)c2)SC(=S)N1c1cccc(Cl)c1` the value was 6.097; for `CCOc1cc(/C=C2\SC(=S)N(c3ccccc3C)C2=O)ccc1O`, 5.022; for `Cc1cccc(N2C(=O)/C(=C/c3ccc(O)c(Br)c3)SC2=S)c1`, 5.009.
The result for `CCOc1cc(/C=C2\SC(=S)N(c3ccc(Br)cc3)C2=O)ccc1O` reads 4.857.
For `COc1ccc(/C=C2\SC(=S)N(c3cccc([N+](=O)[O-])c3)C2=O)cc1Br` the value was 4.627; for `O=C1/C(=C/c2ccc(O)c([N+](=O)[O-])c2)SC(=S)N1c1cccc2ccccc12`, 4.535; for `O=C1/C(=C/c2ccc(O)cc2)SC(=S)N1c1ccc([N+](=O)[O-])cc1`, 5.387.
For `CCOc1ccc(N2C(=O)/C(=C/c3ccc(O)cc3)SC2=S)cc1`, the pIC50 is 5.081.
As for `O=C1/C(=C/c2ccc(O)cc2)SC(=S)N1c1cccc(F)c1`, the pIC50 amounted to 5.066.
The result for `O=C1/C(=C/c2ccc(O)cc2)SC(=S)N1c1ccccc1` reads 5.032; that for `O=C1/C(=C/c2ccc(O)cc2)SC(=S)N1c1ccc(Br)cc1`, 4.955; that for `O=C1/C(=C/c2ccc(O)cc2)SC(=S)N1c1ccc(Cl)cc1`, 4.676.
The result for `COC(=O)c1ccc(/C=C2\SC(=S)N(c3cccc(O)c3)C2=O)cc1` reads 5.081; that for `O=C1/C(=C/c2ccc([N+](=O)[O-])cc2)SC(=S)N1c1cccc(C(F)(F)F)c1`, 4.896.
Consider `COc1ccc(/C=C2\SC(=S)N(c3cccc(OC)c3)C2=O)cc1`, for which the pIC50 is 4.879.
As to `O=C1/C(=C/c2ccc([N+](=O)[O-])cc2)SC(=S)N1c1ccc(F)cc1`, the pIC50 was determined as 4.833.
For `CCOC(=O)c1ccc(/C=C2\SC(=S)N(c3cccc(Cl)c3)C2=O)cc1` the value was 4.724; for `O=C(O)c1ccc(/C=C2\SC(=S)N(c3cccc(Cl)c3)C2=O)cc1`, 5.06.
Take `COc1ccc(/C=C2\SC(=S)N(c3cccc(C(F)(F)F)c3)C2=O)cc1`: the pIC50 is on record as 5.187.
